Results as given in ChEMBL document CHEMBL1149872, “Glycosides from the root of Iodes cirrhosa” (2008).

Test system: PC-12
Test: Neuroprotective activity against rat PC12 cells assessed as glutamate-induced neurotoxicity at 10 uM after 24 hrs by MTT assay
Assay type: functional

Compound	Activity [%]
COc1cc([C@H]2OC[C@H]3[C@@H]2CO[C@@H]3c2cc(OC)c(O[C@@H]3O[C@H](CO)[C@@H](O)[C@H](O)[C@H]3O)c(OC)c2)cc(OC)c1O[C@H]1O[C@@H](CO)[C@H](O)[C@@H](O)[C@@H]1O [LIRIODENDRTACHIOSIDE]	20.5
COc1cc([C@H](O)[C@H](CO)O[C@@H]2O[C@H](CO)[C@@H](O)[C@H](O)[C@H]2O)cc(OC)c1O	-28.4
COc1cc([C@H](O)[C@H](CO)O[C@@H]2O[C@H](CO)[C@@H](O)[C@H](O)[C@H]2O)ccc1O	-32.9
COc1cc([C@@H](O)[C@H](CO)Oc2ccc(CCCO[C@@H]3O[C@H](CO)[C@@H](O)[C@H](O)[C@H]3O)cc2O)ccc1O	36.4
COc1cc([C@@H](O)[C@H](CO)O[C@@H]2O[C@H](CO)[C@@H](O)[C@H](O)[C@H]2O)ccc1O	-46.6
